Results: patent US6737383B1, “Herbicidal oxadiazolidines” (priority 1999, dated 2004)

Key:
velvetleaf = assay: Test B pre/postemergence velvetleaf; type: in vivo, Abutilon theophrasti; conditions: for Velvetleaf plant response rating: scale of 0 to 10 where 0 is no effect and 10 is complete control
Procedure, shortened: (§1)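 Response is a visual 0-to-10 score relative to untreated plants, where 0 means no effect and 10 means complete control, taken twelve to sixteen days after application. Treatments went onto soil at planting and onto foliage of 1- to 4-leaf plants, using a surfactant-containing non-phytotoxic solvent.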

blackgrass = assay: Test B pre/postemergence blackgrass; type: in vivo, Alopecurus myosuroides; conditions: for Blackgrass plant response rating: scale of 0 to 10 where 0 is no effect and 10 is complete control
Procedure, shortened: as §1

pigweed = assay: Test B pre/postemergence pigweed; type: in vivo, Amaranthus retroflexus; conditions: for Redroot pigweed plant response rating: scale of 0 to 10 where 0 is no effect and 10 is complete control
Procedure, shortened: as §1

cocklebur = assay: Test B pre/postemergence cocklebur; type: in vivo, Xanthium strumarium; conditions: for Cocklebur plant response rating: scale of 0 to 10 where 0 is no effect and 10 is complete control
Procedure, shortened: as §1

rice = assay: Test B flood test rice; type: in vivo, Oryza sativa
Procedure, shortened: (§2)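 Read-out is a visual response score from 0 (no effect) to 10 (complete control), assigned by comparison with untreated controls. Treatment was applied at the 2-leaf stage, and plants stayed in the greenhouse for twelve to sixteen days before scoring.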

corn = assay: Test B pre/postemergence corn; type: in vivo, Zea mays; conditions: for Corn plant response rating: scale of 0 to 10 where 0 is no effect and 10 is complete control
Procedure, shortened: as §1

bedstraw = assay: Test B pre/postemergence bedstraw; type: in vivo, Galium aparine; conditions: for Bedstraw plant response rating: scale of 0 to 10 where 0 is no effect and 10 is complete control
Procedure, shortened: as §1

crabgrass = assay: Test B pre/postemergence crabgrass; type: in vivo, Digitaria sanguinalis; conditions: for Crabgrass plant response rating: scale of 0 to 10 where 0 is no effect and 10 is complete control
Procedure, shortened: as §1

bamyardgrass = assay: Test B flood test barnyardgrass; type: in vivo, Echinochloa crus-galli
Procedure, shortened: as §2

soybean = assay: Test B pre/postemergence soybean; type: in vivo, Glycine max; conditions: for Soybean plant response rating: scale of 0 to 10 where 0 is no effect and 10 is complete control
Procedure, shortened: as §1

smallflower flatsedge = assay: Test B flood test smallflower flatsedge; type: in vivo, Cyperus difformis
Procedure, shortened: as §2

wild oat = assay: Test B pre/postemergence wild oat; type: in vivo, Avena fatua; conditions: for Wild oats plant response rating: scale of 0 to 10 where 0 is no effect and 10 is complete control
Procedure, shortened: as §1

surinam grass = assay: Test B pre/postemergence surinam grass; type: in vivo, Brachiaria decumbens; conditions: for B. signalgrass plant response rating: scale of 0 to 10 where 0 is no effect and 10 is complete control
Procedure, shortened: as §1

wheat = assay: Test B pre/postemergence wheat; type: in vivo, Triticum aestivum; conditions: for Wheat plant response rating: scale of 0 to 10 where 0 is no effect and 10 is complete control
Procedure, shortened: as §1

morningglory = assay: Test B pre/postemergence morningglory; type: in vivo, Ipomoea hederacea; conditions: for Morningglory plant response rating: scale of 0 to 10 where 0 is no effect and 10 is complete control
Procedure, shortened: as §1

giant foxtail = assay: Test B pre/postemergence giant foxtail; type: in vivo, Setaria faberii; conditions: for Giant foxtail plant response rating: scale of 0 to 10 where 0 is no effect and 10 is complete control
Procedure, shortened: as §1

[1] = Postemergence, Rate 125 g/ha, scale 0 to 10, 0 is no effect, 10 is complete control
[2] = Postemergence, Rate 250 g/ha, scale 0 to 10, 0 is no effect, 10 is complete control
[3] = Preemergence, Rate 62 g/ha, scale 0 to 10 (0 no effect, 10 complete control)
[4] = Rate 500 g/ha, Postemergence, scale 0 to 10, 0 no effect, 10 complete control
[5] = Rate 62 g/ha, flood test species, Pre-emergence, visual evaluation after twelve to sixteen days
[6] = Rate 125 g/ha, under heading Pre-emergence, flood test species, visual evaluation after twelve to sixteen days
[7] = Rate 250 g/ha, Pre-emergence, flood-test species, scale 0 to 10, 0 is no effect, 10 is complete control
[8] = Rate 500 g/ha, Pre-emergence, flood test species, scale 0 to 10 (0 no effect, 10 complete control)

## Cc1nnsc1Cn1c(=O)on(C(=O)N(c2ccccc2)C(C)C)c1=O [Compound 378]
velvetleaf; [1]
  Plant response rating, Velvetleaf: 0
velvetleaf; [2]
  Plant response rating, Velvetleaf: 0
velvetleaf; [3]
  Plant response rating, Velvetleaf: 0
velvetleaf; Preemergence, Rate 125 g/ha
  Velvetleaf plant response rating (0 to 10 scale): 0
velvetleaf; Preemergence, Rate 250 g/ha
  Velvetleaf plant response rating: 0
velvetleaf; Preemergence, Rate 500 g/ha
  Velvetleaf plant response rating: 0
velvetleaf; Rate 62 g/ha, Postemergence
  Velvetleaf plant response rating: 0
velvetleaf; [4]
  Plant response rating, Velvetleaf: 3
blackgrass; [1]
  Plant response rating, Blackgrass: 0
blackgrass; [2]
  Plant response rating, Blackgrass: 0
blackgrass; [3]
  Plant response rating, Blackgrass: 0
blackgrass; Preemergence, Rate 125 g/ha
  Blackgrass plant response rating (0 to 10 scale): 0
blackgrass; Preemergence, Rate 250 g/ha
  Blackgrass plant response rating: 0
blackgrass; Preemergence, Rate 500 g/ha
  Blackgrass plant response rating: 0
blackgrass; Rate 62 g/ha, Postemergence
  Blackgrass plant response rating: 0
pigweed; [1]
  Plant response rating, Redroot pigweed: 0
pigweed; [2]
  Plant response rating, Redroot pigweed: 0
pigweed; [3]
  Plant response rating, Redroot pigweed: 0
pigweed; Preemergence, Rate 125 g/ha
  Redroot pigweed plant response rating (0 to 10 scale): 0
pigweed; Preemergence, Rate 250 g/ha
  Redroot pigweed plant response rating: 0
pigweed; Preemergence, Rate 500 g/ha
  Redroot pigweed plant response rating: 0
pigweed; Rate 62 g/ha, Postemergence
  Redroot pigweed plant response rating: 0
pigweed; [4]
  Plant response rating, Redroot pigweed: 2
cocklebur; [1]
  Plant response rating, Cocklebur: 0
cocklebur; [2]
  Plant response rating, Cocklebur: 0
cocklebur; [3]
  Plant response rating, Cocklebur: 0
cocklebur; Preemergence, Rate 125 g/ha
  Cocklebur plant response rating (0 to 10 scale): 0
cocklebur; Preemergence, Rate 250 g/ha
  Cocklebur plant response rating: 0
cocklebur; Preemergence, Rate 500 g/ha
  Cocklebur plant response rating: 0
cocklebur; Rate 62 g/ha, Postemergence
  Cocklebur plant response rating: 0
cocklebur; [4]
  Plant response rating, Cocklebur: 1
rice; [5]
  Plant response rating, Rice (0 to 10 scale, 0 is no effect, 10 is complete control): 0
rice; [6]
  Rice plant response rating (0 to 10 scale, 0 is no effect, 10 is complete control): 0
rice; [7]
  Rice plant response rating: 0
rice; [8]
  Rice plant response rating: 0
corn; [1]
  Plant response rating, Corn: 0
corn; [2]
  Plant response rating, Corn: 0
corn; [3]
  Plant response rating, Corn: 0
corn; Preemergence, Rate 125 g/ha
  Corn plant response rating (0 to 10 scale): 0
corn; Preemergence, Rate 250 g/ha
  Corn plant response rating: 0
corn; Preemergence, Rate 500 g/ha
  Corn plant response rating: 0
corn; Rate 62 g/ha, Postemergence
  Corn plant response rating: 0
corn; [4]
  Plant response rating, Corn: 0
bedstraw; [2]
  Plant response rating, Bedstraw: 0
bedstraw; [3]
  Plant response rating, Bedstraw: 0
bedstraw; Preemergence, Rate 125 g/ha
  Bedstraw plant response rating (0 to 10 scale): 0
bedstraw; Preemergence, Rate 250 g/ha
  Bedstraw plant response rating: 0
bedstraw; Preemergence, Rate 500 g/ha
  Bedstraw plant response rating: 0
crabgrass; [1]
  Plant response rating, Crabgrass: 0
crabgrass; [2]
  Plant response rating, Crabgrass: 0
crabgrass; [3]
  Plant response rating, Crabgrass: 0
crabgrass; Preemergence, Rate 125 g/ha
  Crabgrass plant response rating (0 to 10 scale): 3
crabgrass; Preemergence, Rate 250 g/ha
  Crabgrass plant response rating: 9
crabgrass; Preemergence, Rate 500 g/ha
  Crabgrass plant response rating: 10
crabgrass; Rate 62 g/ha, Postemergence
  Crabgrass plant response rating: 0
crabgrass; [4]
  Plant response rating, Crabgrass: 2
bamyardgrass; [5]
  Plant response rating, Barnyardgrass (0 to 10 scale, 0 is no effect, 10 is complete control): 0
bamyardgrass; [6]
  Barnyardgrass plant response rating (0 to 10 scale, 0 is no effect, 10 is complete control): 0
bamyardgrass; [7]
  Barnyardgrass plant response rating: 0
bamyardgrass; [8]
  Barnyardgrass plant response rating: 0
soybean; [1]
  Plant response rating, Soybean: 0
soybean; [2]
  Plant response rating, Soybean: 0
soybean; [3]
  Plant response rating, Soybean: 0
soybean; Preemergence, Rate 125 g/ha
  Soybean plant response rating (0 to 10 scale): 0
soybean; Preemergence, Rate 250 g/ha
  Soybean plant response rating: 0
soybean; Preemergence, Rate 500 g/ha
  Soybean plant response rating: 0
soybean; Rate 62 g/ha, Postemergence
  Soybean plant response rating: 0
soybean; [4]
  Plant response rating, Soybean: 2
Smallflower flatsedge; [5]
  Plant response rating, S. Flatsedge (0 to 10 scale, 0 is no effect, 10 is complete control): 0
Smallflower flatsedge; [6]
  S. Flatsedge plant response rating (0 to 10 scale, 0 is no effect, 10 is complete control): 0
Smallflower flatsedge; [7]
  S. Flatsedge plant response rating: 0
Smallflower flatsedge; [8]
  S. Flatsedge plant response rating: 0
Wild oat; [1]
  Plant response rating, Wild oats: 0
Wild oat; [2]
  Plant response rating, Wild oats: 0
Wild oat; [3]
  Plant response rating, Wild oats: 0
Wild oat; Preemergence, Rate 125 g/ha
  Wild oats plant response rating (0 to 10 scale): 0
Wild oat; Preemergence, Rate 250 g/ha
  Wild oats plant response rating: 0
Wild oat; Preemergence, Rate 500 g/ha
  Wild oats plant response rating: 0
Wild oat; Rate 62 g/ha, Postemergence
  Wild oats plant response rating: 0
Wild oat; [4]
  Plant response rating, Wild oats: 0
Surinam grass; [1]
  Plant response rating, B. signalgrass: 0
Surinam grass; [2]
  Plant response rating, B. signalgrass: 0
Surinam grass; [3]
  Plant response rating, B. signalgrass: 0
Surinam grass; Preemergence, Rate 125 g/ha
  B. signalgrass plant response rating (0 to 10 scale, 0 is no effect, 10 is complete control): 0
Surinam grass; Preemergence, Rate 250 g/ha
  B. signalgrass plant response rating: 0
Surinam grass; Preemergence, Rate 500 g/ha
  B. signalgrass plant response rating: 0
Surinam grass; Rate 62 g/ha, Postemergence
  B. signalgrass plant response rating: 0
Surinam grass; [4]
  Plant response rating, B. signalgrass: 2
wheat; [1]
  Plant response rating, Wheat: 0
wheat; [2]
  Plant response rating, Wheat: 0
wheat; [3]
  Plant response rating, Wheat: 0
wheat; Preemergence, Rate 125 g/ha
  Wheat plant response rating (0 to 10 scale): 0
wheat; Preemergence, Rate 250 g/ha
  Wheat plant response rating: 0
wheat; Preemergence, Rate 500 g/ha
  Wheat plant response rating: 0
wheat; Rate 62 g/ha, Postemergence
  Wheat plant response rating: 0
wheat; [4]
  Plant response rating, Wheat: 0
morningglory; [1]
  Plant response rating, Morningglory: 7
morningglory; [2]
  Plant response rating, Morningglory: 10
morningglory; [3]
  Plant response rating, Morningglory: 0
morningglory; Preemergence, Rate 125 g/ha
  Morningglory plant response rating (0 to 10 scale): 0
morningglory; Preemergence, Rate 250 g/ha
  Morningglory plant response rating: 0
morningglory; Preemergence, Rate 500 g/ha
  Morningglory plant response rating: 0
morningglory; Rate 62 g/ha, Postemergence
  Morningglory plant response rating: 5
morningglory; [4]
  Plant response rating, Morningglory: 10
Giant foxtail; [1]
  Plant response rating, Giant foxtail: 0
Giant foxtail; [2]
  Plant response rating, Giant foxtail: 3
Giant foxtail; [3]
  Plant response rating, Giant foxtail: 4
Giant foxtail; Preemergence, Rate 125 g/ha
  Giant foxtail plant response rating (0 to 10 scale): 4
Giant foxtail; Preemergence, Rate 250 g/ha
  Giant foxtail plant response rating: 10
Giant foxtail; Preemergence, Rate 500 g/ha
  Giant foxtail plant response rating: 10
Giant foxtail; Rate 62 g/ha, Postemergence
  Giant foxtail plant response rating: 0
Giant foxtail; [4]
  Plant response rating, Giant foxtail: 8
